Data on 6 compounds can be found in EP0705277B1, “PROSTAGLANDIN RECEPTOR EP3 AND DNA ENCODING IT” (MERCK FROSST CANADA INC., priority 1993, dated 1995).

pIC50: −log10 of the molar value.

The target in test [1] is T1, hEP3 subtype (hEP3α, hEP3-21 and hEP3-9 isoforms) (Homo sapiens, UniProt P43115).
T1 sequence (P43115 1-390): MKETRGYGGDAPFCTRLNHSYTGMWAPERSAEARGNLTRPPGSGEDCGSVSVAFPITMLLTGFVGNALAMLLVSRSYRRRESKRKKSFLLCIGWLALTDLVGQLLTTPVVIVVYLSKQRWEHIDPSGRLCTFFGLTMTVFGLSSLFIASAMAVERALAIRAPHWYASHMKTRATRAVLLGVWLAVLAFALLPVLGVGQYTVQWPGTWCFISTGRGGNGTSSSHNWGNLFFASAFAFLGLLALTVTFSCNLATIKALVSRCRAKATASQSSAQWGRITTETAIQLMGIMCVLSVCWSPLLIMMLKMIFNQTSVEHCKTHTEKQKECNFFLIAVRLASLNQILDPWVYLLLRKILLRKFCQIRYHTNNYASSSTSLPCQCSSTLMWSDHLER
Put plainly: [3H]PGE2 competition binding, value stated across the three hEP3 isoforms. The protocol: Mammalian cell transfectants are analyzed for both the levels of EP3 receptor activity and levels of EP3 protein by the following methods. Assessing EP3 receptor activity involves the direct introduction of a labelled ligand to the cells and determining the amount of specific binding of the ligand to the EP3-expressing cells. Binding assays for receptor activity are known in the art (Frey et al., 1993, Eur. J. Pharmacol., 244, pp 239-250).
The three cloned forms of the human prostaglandin E receptor EP3 subtype (hEP3a, hEP3-21 and hEP3-9) which differ in the carboxyl terminus region of the encoded protein were individually subcloned into the pcDNAlamp plasmid (Invitrogen) and transfected into COS-M6 cells using the DEAE-dextran method. The cells were maintained in culture for 72 hours, then harvested and membranes prepared by differential centrifugation (1000 x g for 10 minutes, then 100,000 x g for 30 minutes) following lysis of the cells by nitrogen cavitation. […] Incubations were conducted for 1 hour at room temperature prior to separation of the bound and free radioligand by rapid filtration as previously described (Frey et al., 1993).

Another test concerns the target T2, hEP1 (Homo sapiens, UniProt P34995).
T2 sequence (P34995 1-402): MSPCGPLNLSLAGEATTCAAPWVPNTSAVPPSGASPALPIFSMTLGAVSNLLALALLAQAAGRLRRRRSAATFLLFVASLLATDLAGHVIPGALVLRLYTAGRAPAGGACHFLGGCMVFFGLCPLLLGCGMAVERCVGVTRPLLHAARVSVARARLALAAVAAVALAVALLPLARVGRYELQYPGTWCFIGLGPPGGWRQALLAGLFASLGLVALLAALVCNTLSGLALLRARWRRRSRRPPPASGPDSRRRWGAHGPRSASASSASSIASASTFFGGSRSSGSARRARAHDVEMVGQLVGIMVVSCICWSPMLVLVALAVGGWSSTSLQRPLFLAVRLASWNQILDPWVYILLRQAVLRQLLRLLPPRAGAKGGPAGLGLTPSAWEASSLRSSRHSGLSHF
Briefly: Binding at the hEP1 subtype (comparison value). To be noted: given for comparison.

The target of another test is T3, hEP3-21 (Homo sapiens, UniProt P43115).
T3 construct: both a 1.7 kb full length human EP3-21 cDNA clone and a 1.4 kb full length human EP3-9 cDNA clone; expressed in transfected cells; host or cells: COS-M6 cells (membranes), pcDNAIamp vector
T3 sequence (P43115 1-388 isoform P43115-2): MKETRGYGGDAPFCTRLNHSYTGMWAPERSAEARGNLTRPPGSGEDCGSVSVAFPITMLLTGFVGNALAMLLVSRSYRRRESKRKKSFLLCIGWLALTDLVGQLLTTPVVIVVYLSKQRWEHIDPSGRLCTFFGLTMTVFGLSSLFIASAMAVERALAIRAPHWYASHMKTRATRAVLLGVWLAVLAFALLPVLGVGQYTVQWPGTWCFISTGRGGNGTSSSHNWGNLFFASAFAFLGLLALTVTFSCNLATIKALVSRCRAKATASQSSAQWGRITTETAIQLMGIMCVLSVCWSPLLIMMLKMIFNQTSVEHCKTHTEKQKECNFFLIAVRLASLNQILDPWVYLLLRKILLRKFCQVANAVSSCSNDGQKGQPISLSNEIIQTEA
Put plainly: [3H]PGE2 binding assay, membranes of pcDNAIamp-hEP3-21 transfected COS-M6 cells. The following applies: for fold less active than PGE2: competition for [3H]PGE2 specific binding, relative to PGE2. The procedure: (§1) Mammalian cell transfectants are analyzed for both the levels of EP3 receptor activity and levels of EP3 protein by the following methods. Assessing EP3 receptor activity involves the direct introduction of a labelled ligand to the cells and determining the amount of specific binding of the ligand to the EP3-expressing cells.
(§2) The three cloned forms of the human prostaglandin E receptor EP3 subtype (hEP3a, hEP3-21 and hEP3-9) which differ in the carboxyl terminus region of the encoded protein were individually subcloned into the pcDNAlamp plasmid (Invitrogen) and transfected into COS-M6 cells using the DEAE-dextran method. The cells were maintained in culture for 72 hours, then harvested and membranes prepared by differential centrifugation (1000 x g for 10 minutes, then 100,000 x g for 30 minutes) following lysis of the cells by nitrogen cavitation.

A further test deals with T4, hEP3α (Homo sapiens, UniProt P43115).
T4 construct: a 1.9 kb full length human EP3α cDNA clone was plaque-purified; expressed in transfected cells; host or cells: COS-M6 cells (membranes), pcDNAIamp vector
T4 sequence (P43115 1-390): T1 sequence (P43115 1-390)
Put plainly: [3H]PGE2 binding assay, membranes of pcDNAIamp-hEP3α transfected COS-M6 cells. The following applies: for fold less active than PGE2: competition for [3H]PGE2 specific binding, relative to PGE2. The protocol: as §1, §2

The target of the next test is T5, hEP3-9 (Homo sapiens, UniProt P43115).
T5 construct: both a 1.7 kb full length human EP3-21 cDNA clone and a 1.4 kb full length human EP3-9 cDNA clone; expressed in transfected cells; host or cells: COS-M6 cells (membranes), pcDNAIamp vector
T5 sequence (P43115 1-365 isoform P43115-3): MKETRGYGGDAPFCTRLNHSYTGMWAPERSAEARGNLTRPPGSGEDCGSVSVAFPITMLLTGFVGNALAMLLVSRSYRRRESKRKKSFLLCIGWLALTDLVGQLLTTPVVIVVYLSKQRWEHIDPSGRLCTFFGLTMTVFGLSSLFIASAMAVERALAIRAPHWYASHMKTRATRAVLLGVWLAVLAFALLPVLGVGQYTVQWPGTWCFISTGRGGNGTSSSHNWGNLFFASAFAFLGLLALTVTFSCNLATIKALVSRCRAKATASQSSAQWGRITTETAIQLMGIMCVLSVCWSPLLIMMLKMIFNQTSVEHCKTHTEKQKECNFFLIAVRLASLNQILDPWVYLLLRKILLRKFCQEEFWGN
Put plainly: [3H]PGE2 binding assay, membranes of hEP3-9 transfected COS-M6 cells. To be noted: for fold less active than PGE2: competition for [3H]PGE2 specific binding, relative to PGE2. The procedure: as §1, §2

A further test concerns the target T6, thromboxane receptor (Homo sapiens, UniProt P21731).
T6 construct: One full-length (≈ 2.9 kb) clone contained extensive 5' and 3' noncoding regions; expressed in transfected cells; host or cells: human embryonic kidney 293 cells and membranes
T6 sequence (P21731 1-343): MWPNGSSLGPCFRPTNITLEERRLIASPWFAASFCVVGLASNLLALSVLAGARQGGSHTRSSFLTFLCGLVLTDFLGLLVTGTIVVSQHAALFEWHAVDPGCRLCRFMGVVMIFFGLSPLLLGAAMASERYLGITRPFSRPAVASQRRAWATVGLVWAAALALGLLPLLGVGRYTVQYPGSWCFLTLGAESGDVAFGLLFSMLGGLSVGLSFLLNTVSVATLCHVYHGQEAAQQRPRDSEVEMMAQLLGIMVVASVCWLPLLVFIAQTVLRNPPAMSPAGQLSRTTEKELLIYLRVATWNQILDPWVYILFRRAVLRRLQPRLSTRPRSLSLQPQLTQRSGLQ
Put plainly: SQ-29548 binding to 293 cells and membranes transfected with thromboxane-receptor cDNA. The following applies: human embryonic kidney 293 cells and membranes transfected with thromboxane-receptor cDNA. An excerpt: The thromboxane receptor has been expressed in Xenopus oocytes. It can couple with endogenous signal transduction components to elicit a calcium-activated Cl- current recorded by electrophysiological measurement using the procedure described by Hirata, M. et al., (1991), Nature, 349, pp. 617. Binding studies have been performed with COS-1 cell membranes transfected by thromboxane receptor cDNA using the ligand S-145 (Hirata, M. et al., (1991), Nature, 349, pp. 617). […] This level of expression is at least 5-10 times higher than in platelet membranes. On a per-cell basis assuming a 10% transfection efficiency, we estimate ≈ 10^6 binding sites/tranfected cell as compared to ≈ 1300 sites present on a platelet (Hourani, S.M.O, et al., (1991), Pharmacol. Rev., 43, pp. 243).

With `CCCCC(C)(O)C/C=C/[C@H]1[C@H](O)CC(=O)[C@@H]1CCCCCCC(=O)OC` (mixture of isomers) [misoprostol], the pIC50 (usually the negative decadic logarithm of the IC50, by convention in mol/L) in test [1] is 5.92 to 6.52.
Regarding `CC(C)Oc1ccc2c(=O)c3cc(C(=O)O)ccc3oc2c1` [AH6809], the figures for the pIC50 (in test [1]; at hEP1) were 5.15 to 5.70 and 6.30, respectively. The “fold less active at the hEP3 subtype as compared with the hEP1 subtype” value in test [1] (hEP3 versus hEP1, in general) is reported as 5-10 fold.
Turning to `CCCCC[C@H](O)/C=C/[C@H]1C(=O)C[C@H](O)[C@@H]1C/C=C\CCCC(=O)O` [PGD2], the “fold less active than PGE2” value on hEP3-21 is listed as about 2000 fold; on hEP3α, about 2000 fold; at hEP3-9, about 500 fold.
As for `CCCCC[C@H](O)/C=C/[C@H]1[C@H](O)CC(=O)[C@@H]1CCCCCCC(=O)O` [PGE1], the pIC50 on hEP3-21, at hEP3α and on hEP3-9 was about 9.00 throughout.
For `CCCCC[C@H](O)/C=C/[C@@H]1[C@@H](C/C=C\CCCC(=O)O)[C@@H](O)C[C@H]1O` [PGF2α], the “fold less active than PGE2” value on hEP3-21 is on record as “approximately 200 fold”; on hEP3α, “approximately 200 fold”; on hEP3-9, about 65 fold.
Consider `O=C(O)CCC/C=C\C[C@@H]1[C@H](CNNC(=O)Nc2ccccc2)[C@H]2CC[C@@H]1O2` [SQ-29548], for which the binding entry at thromboxane receptor is “high affinity binding”.
